# Measurements reported in patent US20110028566A1, “COMPOSITIONS AND PRODUCTS CONTAINING CYCLOALIPHATIC DIOL ANTIMICROBIAL AGENTS AND METHODS OF USING THE COMPOSITIONS AND PRODUCTS” (EASTMAN CHEMICAL COMPANY, priority 2009, published 2011).
# Several values for one entry are separate records, joined by “and”; a condition that tells them apart may be missing. Equal entries are not always repeated.
# How the values were obtained:
# [1] = system: Escherichia coli ATCC 25922; experiment: MIC determination and synergy testing (Kull synergy index), microplate; format: cell-based; settings: for QA, MIC of CHDM alone / QA/a: concentration of CHDM (MIC alone, or in the combination at an inhibitory concentration) / SI (synergy index) / QA/a: concentration of CHDM alone (QA, MIC) / QB/b: concentration of CG (MIC alone, or in the combination at an inhibitory concentration): E. coli; for QA/a: concentration of CHDM (MIC alone, or in the combination at an inhibitory concentration) / SI (synergy index) / QB/b: concentration of CG (MIC alone, or in the combination at an inhibitory concentration): plate 107A, CG and CHDM
# Method: The test cultures are listed in Table 7 along with the incubation temperatures used for growth and minimum inhibitory concentration (MIC) testing. […] C. albicans was cultured in Sabouraud dextrose broth (SDB) for approximately 44-52 hours for preparation of inoculum. A. niger was cultured on Sabouraud dextrose agar (SDA) for 3-4 days until there was confluent growth and visible spore formation. Spores were harvested from the SDA plates by flooding the surface of the plate with 5-10 mL of phosphate-buffered saline (PBS) and gently spreading the liquid across the surface of the plate with a sterile T-shaped plastic spreader (Copan Diagnostics) until there was a well-mixed suspension of spores. The resulting spore suspension was collected using a serological pipette and stored at 2-8° C. until use.
# Inoculum concentration was determined by dilution plating of the cultures or spore suspension. A serial dilution in PBS was made to 10^−8 for the bacterial cultures or 10^−5 for the fungal cultures. Fifty or 100 μL of the final dilution was spread on two Trypticase-soy agar (TSA) plates for bacteria or two SDA plates for fungi. After 24 to 48 hours plates were counted and the concentrations used in each experiment were calculated.
# The antimicrobial agents tested for synergy along with the respective diluents and working stock solution concentrations are shown below. For determination of MIC ranges, individual antimicrobial agent stock solutions were added to sterile medium to yield the highest level test concentrations, and then serially diluted in the medium to prepare the range of test concentrations. For synergy testing individual test concentrations were prepared in sterile medium, and then blended to form the desired combinations.
# MICs were determined using a high-throughput microplate method. Individual antimicrobial agents were added to TSB (pH 7.3) for bacterial testing or SDB (pH 5.6) for fungal testing at the highest concentration to be tested. A serial dilution series was prepared at a dilution ratio of 1:1.3333 such that a one log range was covered in nine dilutions. Two-hundred microliters of the diluted antimicrobial agents were dispensed into four wells each of a sterile, 96-well, flat-bottom microplate (Nalge Nunc International). Four additional wells of the highest concentration were dispensed to serve as uninoculated high-level controls. Eight additional wells containing only broth medium were also prepared, four to serve as negative controls and four as positive controls. Three wells of each antimicrobial agent dilution were inoculated with one of the test strains in Table 7. The final well of each antimicrobial agent dilution was left uninoculated to serve as a control (and means of compensating) for any absorbance/turbidity due to the test compounds.
# Microplates were inoculated using the cultures or spore suspensions prepared as described above. The S. aureus cultures were used undiluted, while the E. coli and P. aeruginosa cultures were used either undiluted or after a 1:2 dilution in sterile TSB. The C. albicans cultures were used either undiluted or following a 2-fold concentration by centrifugation. One of two means of inoculation was used to deliver a final concentration of approximately 10^5 colony-forming units (CFU)/mL of C. albicans, 10^5 spores/mL of A. niger, or 10^6 CFU/mL of bacteria. The primary method used a stainless steel pin replicator (Nalge Nunc International) mounted on a hand-operated bench-top press (Schmidt Technology Corporation) fitted with a custom-built microplate holder to dispense one microliter of each inoculum from a “master” plate containing 50-100 μL of culture into the wells of the test plate. The pin replicator was sterilized before and between inoculations by immersing in ethanol and flaming. The alternative method of inoculation was by directly pipetting 20 μL of a 1:20 dilution of each culture or spore suspension into the appropriate wells of the test plates.
# [2] = system: challenge organisms (fungi, Gram negative and Gram positive bacteria); experiment: Microbial challenge testing (Example 1), statements over all challenge organisms; format: cell-based; settings: Table 6 experiments; glycol 0.5 to 2.5 wt %, BIT 0.05 and 0.2 wt %; from grade codes
# Method: The microorganisms used in challenge tests are given in Table 3, designated as either ATCC (American Type Culture Collection) or wild type. These wild type organisms were problematic organisms previously isolated from chemical products. In the description for each organism, the bacteria are indicated as either GN (Gram negative) or GP (Gram positive). […] Sample substrates were prepared in triplicate, except those substrates containing PE or CG which were prepared in duplicate. […] After mixing, all challenged substrates were incubated at 35° C.±2° C. for 14 days and then at ambient room temperature. […] The turbidity of the sample was determined and, if needed, the sample was diluted with phosphate buffer (pH 7.2) to produce readable plate counts (see “Plate Counts” below). […] For diluted samples, plates producing 22 to 220 colonies per plate were counted and the count was multiplied by the dilution factor. […] Possible synergies were determined by treating the grade code as an estimate of the log of the microbial count (log of cfu/mL). […] Synergies were determined in the same way as described above for Table 5. […] As mentioned previously, synergies (as indicated in Tables 5 and 6) were determined by treating the grade codes as the logarithm (log) of the organism counts (cfu/ml), then adding log reductions for the individual components and comparing to the log reduction for the mixture. […]
smiles,measurement,setting,value
"OCC1CCC(CO)CC1 (centres unmarked) [1,4-CHDM, 1,4-cyclohexanedimethanol]",QA/a,"[1]; CHDM alone (QA) or in combination with BA:DHA (a), plate 111A, day 1",1.73
same,QA/a,"[1]; CHDM alone (QA) or in combination with IPBC (a), plate 119A, day 1",1.73
same,QA/a,"[1]; CHDM alone (QA) or in combination with IPBC (a), plate 119A, day 2",1.73
same,QA/a,"[1]; CHDM: MIC alone (QA) or conc. in combination with CP (a), plate 110A, day 1",1.73
same,QA/a,"[1]; CHDM: MIC alone (QA) or conc. in combination with CP (a), plate 110A, day 2",1.73
same,"QA, MIC of CHDM alone","[1]; day 1 of incubation, plate 108A (MP series)",1.73 weight percent
same,"QA, MIC of CHDM alone","[1]; day 1 of incubation, plates 105A, 213A, 223A (PE series)",1.30 weight percent and 1.47 weight percent
same,"QA, MIC of CHDM alone","[1]; day 2 of incubation, plate 108A (MP series)",1.73 weight percent
same,"QA, MIC of CHDM alone","[1]; day 2 of incubation, plates 105A, 213A, 223A (PE series)",1.30 weight percent and 1.47 weight percent
same,"QA/a: concentration of CHDM (MIC alone, or in the combination at an inhibitory concentration)",[1]; day 1,1.73 weight percent
same,SI (synergy index),[1]; day 1,1.00
same,"QA/a: concentration of CHDM (MIC alone, or in the combination at an inhibitory concentration)",[1]; day 2,1.73 weight percent
same,SI (synergy index),[1]; day 2,1.00
same,"QA/a: concentration of CHDM alone (QA, MIC)","[1]; Table 44, Day 1",1.73 weight percent
same,"QA/a: concentration of CHDM alone (QA, MIC)","[1]; Table 44, Day 2",1.73 weight percent
same,"QA/a: concentration of CHDM alone (QA, MIC)","[1]; Table 47, Day 1",1.73 weight percent
same,"QA/a: concentration of CHDM alone (QA, MIC)","[1]; Table 47, Day 2",1.73 weight percent
same,Synergism of cycloaliphatic diol with BIT (in words),[2],significant enhancement to the antimicrobial activity of BIT
"CCCCCCC(O)CO (centres unmarked) [CG, 1,2-octanediol]","QB/b: concentration of CG (MIC alone, or in the combination at an inhibitory concentration)",[1]; day 1,0.16 weight percent
same,SI (synergy index),[1]; day 1,1.00
same,"QB/b: concentration of CG (MIC alone, or in the combination at an inhibitory concentration)",[1]; day 2,0.16 weight percent
same,SI (synergy index),[1]; day 2,1.00
"CC1(C)C(O)C(C)(C)C1O (centres unmarked) [TMCD, 2,2,4,4-tetramethyl-1,3-cyclobutanediol]",Synergism of cycloaliphatic diol with BIT (in words),[2],significant enhancement to the antimicrobial activity of BIT
